Source: the supplement of paper PMC9938120

Key:
Experiment in all cases: drug sensitivity score (DSS3, normalised partial AUC of % inhibition dose-response) (DSS (score)); higher = more sensitive (stronger inhibition of viability); extreme values may be limits of the assay
Conditions in all cases: 72 h; library: FO5A; assay format: 2D, 384-well, CellTiter-Glo
FMOC02_1 = system: FMOC02_1 (patient-derived low-grade serous ovarian cancer cells)
In short: (§1)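 Patient-derived ovarian cancer cells (early passage, under 10) were dispensed onto 384-well flat clear-bottom plates pre-plated with compounds at five concentrations covering a 10,000-fold range. Plates were incubated 72 h at 37 °C, 5% CO2, and viability was read with CellTiter-Glo. Data were processed in Breeze. The drug sensitivity score (DSS3) is a partial area under the percent-inhibition dose-response curve, divided by the log of the upper asymptote; higher means more sensitive.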

FMOC02_2 = system: FMOC02_2 (patient-derived low-grade serous ovarian cancer cells)
In short: as §1

FMOC02_3 = system: FMOC02_3 (patient-derived low-grade serous ovarian cancer cells)
In short: as §1

FMOC03 = system: FMOC03 (patient-derived mucinous ovarian cancer cells)
In short: as §1

FMOC04 = system: FMOC04 (patient-derived high-grade serous ovarian cancer cells)
In short: as §1

FMOC06 = system: FMOC06 (patient-derived mucinous ovarian cancer cells)
In short: as §1

FMOC09 = system: FMOC09 (patient-derived high-grade serous ovarian cancer cells)
In short: as §1

FMOC11 = system: FMOC11 (patient-derived high-grade serous ovarian cancer cells)
In short: as §1

FMOC14 = system: FMOC14 (patient-derived high-grade serous ovarian cancer cells)
In short: as §1

FMOC17 = system: FMOC17 (patient-derived low-grade serous ovarian cancer cells)
In short: as §1

FMOC22 = system: FMOC22 (patient-derived mucinous ovarian cancer cells)
In short: as §1

FMOC24 = system: FMOC24 (patient-derived high-grade serous ovarian cancer cells)
In short: as §1

FMOC25_2 = system: FMOC25_2 (patient-derived low-grade serous ovarian cancer cells)
In short: as §1

FMOC27 = system: FMOC27 (patient-derived low-grade serous ovarian cancer cells)
In short: as §1

FMOC28 = system: FMOC28 (patient-derived low-grade serous ovarian cancer cells)
In short: as §1

Structure (SMILES) | drug sensitivity score (FMOC02_1) | drug sensitivity score (FMOC02_2) | drug sensitivity score (FMOC02_3) | drug sensitivity score (FMOC03) | drug sensitivity score (FMOC04) | drug sensitivity score (FMOC06) | drug sensitivity score (FMOC09) | drug sensitivity score (FMOC11) | drug sensitivity score (FMOC14) | drug sensitivity score (FMOC17) | drug sensitivity score (FMOC22) | drug sensitivity score (FMOC24) | drug sensitivity score (FMOC25_2) | drug sensitivity score (FMOC27) | drug sensitivity score (FMOC28)
Nc1cc(COc2c(Cl)cc(C[C@H](N)C(=O)O)cc2Cl)c2oc(-c3ccccc3)nc2c1 [JPH203] | 0 | 0 | 0 | 0 | 0 | 0.4 | 0 | 0 | 0 | 0 | 0 | 0 | 0 | 0 | 0
CC(C)NC(=O)COc1cccc(-c2nc(Nc3ccc4[nH]ncc4c3)c3ccccc3n2)c1 [KD025] | 5.4 | 1.6 | 6.2 | 0 | 3.55 | 1.1 | 0.2 | 1.6 | 2.7 | 4.5 | 0 | 10.4 | 4.4 | 0 | 2.4
O=C(Nc1cnn2ccc(N3CCC[C@@H]3c3cc(F)ccc3F)nc12)N1CC[C@H](O)C1 [Larotrectinib] | 0 | 0 | 0 | 0 | 0 | 0 | 0 | 0 | 0 | 0 | 0 | 0 | 0 | 0 | 0
O=C(CCNC(=O)c1ccc(OC(F)(F)F)cc1)N[C@@H]1CCCc2ccccc21 [ML390] | 5.3 | 3 | 4.2 | 4.6 | 2.9 | 0.3 | 0 | 3.6 | 0 | 2 | 4.8 | 0.8 | 6 | 3.4 | 2.2
CCCN(CCC)C(=O)C1=Cc2ccc(-c3ccc(C(=O)N4CCCC4)cc3)cc2N=C(N)C1 [Motolimod] | 0 | 0 | 1.6 | 0 | 0 | 0.3 | 0 | 0 | 0 | 0 | 0 | 0 | 0.1 | 0.4 | 2.5
Cc1ccc(C(=O)Nc2cccc(C(F)(F)F)c2)cc1Nc1nc(-c2cccnc2)nc2c1cnn2C [NVP-BHG712] | 6.2 | 3 | 3.3 | 5.2 | 0 | 7.3 | 3 | 4.7 | 3.3 | 4.6 | 3.4 | 7.9 | 0 | 1.6 | 4.8
CN1C(=O)N[C@H](Cc2c[nH]c3c(Cl)cccc23)C1=O [Necrostatin 2] | 0 | 0 | 0 | 0 | 0 | 0 | 0 | 0 | 0 | 0.7 | 0 | 0 | 0.3 | 0 | 2.5
O=c1ncn2nc(Sc3ccc(F)cc3F)ccc2c1-c1c(Cl)cccc1Cl [Neflamapimod] | 0 | 0 | 0 | 0 | 0 | 0.3 | 1.1 | 1 | 0 | 0 | 0 | 0.05 | 0 | 0.1 | 1.1
CC(O)c1cc(C(=O)N[C@@H](C)Cn2ccc(-c3ccc(C#N)c(Cl)c3)n2)n[nH]1 (stereo not given in full) [ODM-201] | 0 | 0 | 0 | 0.4 | 0 | 0.7 | 0.9 | 0 | 0 | 0 | 0 | 0 | 0.5 | 0 | 0
C=CC(=O)Nc1cccc(Oc2nc(Nc3ccc(N4CCN(C)CC4)cc3)nc3ccsc23)c1 [Olmutinib] | 2.3 | 2.1 | 2.3 | 0.8 | 0.05 | 0.2 | 3.5 | 0.4 | 0 | 2.6 | 0 | 0 | 1.5 | 2.4 | 1.7
Cc1ccc(=O)n(-c2ccccc2)c1 [Pirfenidone] | 0 | 0 | 0 | 0 | 0 | 0 | 0 | 0.1 | 0 | 0.6 | 0 | 0 | 0 | 0 | 0
COC(=O)c1ccc([C@H]2c3[nH]c4ccccc4c3C[C@H](C(=O)OC)N2C(=O)CCl)cc1 [RSL3] | 0 | 0 | 0 | 0 | 0 | 0 | 0 | 0 | 0 | 0 | 0 | 0 | 0 | 0 | 0
Cc1cn(-c2cc(NC(=O)c3ccc(C)c(Nc4nccc(-c5cnccn5)n4)c3)cc(C(F)(F)F)c2)cn1 [Radotinib] | 0 | 0 | 0 | 0 | 0 | 2.4 | 0 | 0 | 0 | 0 | 0 | 1 | 0.2 | 0 | 1.6
CCOC(=O)C1=CCCC[C@H]1S(=O)(=O)Nc1ccc(F)cc1Cl [Resatorvid] | 0 | 0 | 0 | 0 | 0 | 0.1 | 0 | 0 | 0 | 0 | 0 | 0 | 0 | 0 | 0
CCOCc1nc2c(N)nc3ccccc3c2n1CC(C)(C)O [Resiquimod] | 0 | 0 | 0 | 0 | 0 | 0.6 | 0.2 | 0 | 0 | 0 | 0 | 1.5 | 0 | 0 | 0
C[C@H]1CNCCCN1S(=O)(=O)c1cccc2cncc(F)c12 [Ripasudil] | 0 | 0 | 0 | 0 | 0 | 0 | 0 | 0 | 0 | 0 | 0 | 0 | 0 | 0 | 0
Cc1nc(C(=O)NCC(=O)O)c(O)c2ccc(Oc3ccccc3)cc12 [Roxadustat] | 0 | 0 | 0 | 0 | 0 | 0 | 0 | 0 | 0 | 0 | 0 | 3.3 | 0 | 0.2 | 0
CC1=C2C[C@H]3[C@@H](CC[C@@H]4C[C@H](NS(C)(=O)=O)CC[C@@]43C)[C@@H]2CC[C@@]2(C1)O[C@@H]1C[C@H](C)CN[C@H]1[C@H]2C [Saridegib] | 0 | 2.2 | 0 | 0 | 0 | 0 | 0 | 0 | 0 | 4.1 | 0 | 0.3 | 0 | 0 | 2.2
Cc1cc(F)c(C(=O)Nc2cccc(-c3nncn3C(C)C)n2)cc1-n1cnc(C2CC2)c1 [Selonsertib] | 0 | 0 | 0 | 0 | 0 | 0 | 0 | 0 | 0 | 1.5 | 0 | 0.6 | 0 | 0 | 0
CN1CCN(C(=O)c2ccc3cc(CCNc4ncnc5ccc(C#N)cc45)ccc3c2)CC1 [Senexin B] | 0.6 | 1.3 | 2.9 | 1.5 | 0 | 1 | 0 | 0 | 0 | 0.6 | 0 | 0.2 | 1.2 | 0 | 0
COCC[n+]1c2c(n(Cc3cnccn3)c1C)C(=O)c1ccccc1C2=O [Sepantronium bromide] | 38.4 | 30.6 | 36.1 | 39 | 38.1 | 32.9 | 43.7 | 37.8 | 42.6 | 36.9 | 33.2 | 33.5 | 41.4 | 30.9 | 43
COCCNCc1ccc(-c2cc3nccc(Oc4ccc(NC(=O)C5(C(=O)Nc6ccc(F)cc6)CC5)cc4F)c3s2)nc1 [Sitravatinib] | 2.1 | 1.1 | 2.5 | 0.3 | 0.45 | 1.6 | 1.4 | 1.1 | 1.2 | 2.1 | 0.4 | 5.8 | 2.2 | 2.5 | 1.5
CC(C)Oc1ccc(-c2nn([C@@H](C)c3oc4ccc(F)cc4c(=O)c3-c3cccc(F)c3)c3ncnc(N)c23)cc1F [TGR-1202] | 1.6 | 1.1 | 2 | 0 | 0.05 | 0.3 | 0 | 0 | 1.7 | 3.5 | 0 | 0.2 | 0.1 | 0.1 | 4.6
CN(C(=O)c1ccc(F)cc1C(F)(F)F)C1CCN(c2nnc(-c3ccnn3C)c3ccccc23)CC1 [Taladegib] | 0 | 0 | 0 | 0 | 0 | 0 | 0 | 0 | 0 | 0 | 0 | 0 | 0 | 0 | 0
CN1CCC(COc2cnc(-c3cccc(Cn4nc(-c5cccc(C#N)c5)ccc4=O)c3)nc2)CC1 [Tepotinib] | 0.3 | 1.6 | 3.7 | 0.2 | 0.75 | 0 | 0 | 0 | 0 | 0.5 | 0 | 1.9 | 2.3 | 0 | 3.4
